Converted amounts (≈) assume the structure as drawn.
Test system: HT-1080 cells
Assay: Lethality of commercially available CIL41/70 structural analogs
Type: cell-based
Settings: Homo sapiens, tested once in technical triplicates
Description: 1,000 cells per 36 μl were seeded in each well in 384-well plates. Lethal compounds were dissolved, and a twofold, 12-point dilution series was prepared in DMSO. Compound solutions were further diluted with media at 1:25, and 4 μl per well of the diluted solutions was added to cell cultures immediately after cells were seeded. […] When other cell-death-modulating compounds (100 nM sodium selenite, 1 μM cerivastatin, 100 μg/mL mevalonic acid) were used in cotreatments, they were supplemented to cell culture for 24 h before lethal compounds were added to cell culture, after which cells were further incubated for 24 h at 37° C. under 5% CO2. On the day of the viability measurement, we added 10 μl per well of 50% Alamar Blue diluted in media (Life Technologies) and further incubated the cells at 37° C. for 6 h. Fluorescence intensity (excitation/emission: 530/590) was measured with a Victor 3 plate reader (PerkinElmer), and the normalized viability was calculated as VL=(IL−I0)/(IV−I0), where VL, I0, IV, and IL are the normalized viability and the raw fluorescence intensities from the wells containing media, cells treated with a vehicle (negative control), and cells with the lethal compound (L), respectively. When the effect of a chemical modulator (M) on L was calculated, we instead used the equation VL|M=(IM,L−I0)/(IM,V−I0), where VL|M, IM,L and IM,V are the normalized viability, and fluorescence intensity from cells treated with […], respectively. The viability was typically measured in biological triplicate unless otherwise specified. A representative dose-response curve, the mean and standard error of normalized viability from one replicate were plotted. HT-1080 viability after modulator treatments corresponding to FIG. 3C and FIGS. 5E-5F is available in FIGS. 19A-19C.
Their lethality was tested once in HT-1080 cells in technical triplicates.

| Compound | EC50 [µg/mL] |
| --- | --- |
| N/C(Cc1ccc(Cl)cc1Cl)=N\OC(=O)/C=C/c1ccccc1 [AS2] | 12.3 (≈ 35.1 µM) |
| Cc1cccc(OCC(=O)O/N=C(\N)Cc2cccs2)c1 [CB40] | > 20 |
| Cc1cc(OCC(=O)O/N=C(\N)Cc2cccc3ccccc23)cc(C)c1Br [CB102] | > 20 |
| COc1ccc(CC(=O)O/N=C(\N)Cc2cccc3ccccc23)cc1OC [CB64] | > 20 |
| N[C@H](Cc1ccc(Cl)cc1)NOC(=O)/C=C/c1ccccc1 [CB18] | 10.2 (≈ 32.2 µM) |
| N/C(Cc1ccc(Cl)cc1)=N\OC(=O)C1CCCCC1 [CB58] | 17.6 (≈ 59.7 µM) |
| CC(=O)O/N=C(\N)Cc1csc2ccc(Cl)cc12 [MB5] | > 20 |
| CC1=C(Br)C(C)N(C/C(N)=N/OC(=O)CC2CC3CCC2C3)N1 (stereo not drawn) [ZE12] | > 20 |
| COc1ccc(C/C(N)=N/OC(=O)COc2ccc(Br)c(C)c2)cc1 [CB37] | > 20 |
| CC(C)c1ccc(OCC(=O)O/N=C(\N)Cc2ccc([N+](=O)[O-])cc2)cc1 [CB93] | > 20 |
| CC(=O)O/N=C(\N)Cc1ccc(-c2csnn2)cc1 [MB8] | > 20 |
| N/C(Cc1ccc([N+](=O)[O-])cc1)=N\OC(=O)COc1cccc2ccccc12 [CB6] | > 20 |
| N/C(CC(=O)NC1CCCCC1)=N\OC(=O)C1CCCN1C(=O)c1cccs1 (stereo not drawn) [EN9] | > 20 |
| N/C(Cc1cccc2ccccc12)=N\OC(=O)Cc1cccs1 [CB109] | > 20 |
| N/C(Cc1ccc([N+](=O)[O-])cc1)=N\OC(=O)C(c1ccccc1)c1ccccc1 [CB56] | 4.05 (≈ 10.4 µM) |
| CC(=O)O/N=C(N)\C(=N/Nc1ccccc1)[N+](=O)[O-] [CB145] | > 20 |
| N/C(Cc1ccc(Cl)cc1Cl)=N\OC(=O)CCCOc1ccccc1 [CB138] | > 20 |
| NC(/C=C/c1cc(C(F)(F)F)cc(C(F)(F)F)c1)=N\OC(=O)/C=C/c1ccccc1 [MB1] | > 20 |
| Cc1ccccc1OCC(=O)O/N=C(\N)Cc1cccs1 [CB21] | > 20 |
| COc1ccc(C/C(N)=N/OC(=O)Cc2ccc(Cl)cc2)cc1 [CB11] | > 20 |
| N[C@H](Cc1ccc([N+](=O)[O-])cc1)NOC(=O)COc1ccc2ccccc2c1 [CB57] | > 20 |
| N/C(Cc1ccc(Cl)cc1)=N\OC(=O)COc1ccccc1Cl [CB4] | > 20 |
| N/C(Cc1ccc([N+](=O)[O-])cc1)=N\OC(=O)COc1ccc(Br)cc1Cl [CB76] | > 20 |
| N/C(Cc1cccs1)=N\OC(=O)COc1ccccc1 [CB24] | > 20 |

| Compound | EC50 [µg/mL] |
| --- | --- |
| COc1ccc(C/C(N)=N/OC(C)=O)cc1OC [CB66] | > 20 |
| CC(C)(Oc1ccc(Cl)cc1)C(=O)O/N=C(\N)Cc1ccc([N+](=O)[O-])cc1 [CB117] | > 20 |
| N/C(Cc1ccc(Cl)cc1Cl)=N\OC(=O)Cc1ccccc1 [CB127] | > 20 |
| COc1ccccc1C/C(N)=N/OC(=O)COc1ccc(C)cc1C [CB15] | > 20 |
| CC(C)(C)C(=O)O/N=C(\N)COc1ccc(Cl)cc1Cl [MB11] | > 20 |
| Cc1cc(Cl)ccc1OCC(=O)O/N=C(\N)Cc1ccc([N+](=O)[O-])cc1 [CB125] | > 20 |
| Cc1nn(C/C(N)=N/OC(=O)Cn2nc(C(F)(F)F)cc2C2CC2)c(C)c1[N+](=O)[O-] [ZE9] | > 20 |
| COc1ccc(C/C(N)=N/OC(=O)COc2ccc(C)cc2Br)cc1 [CB47] | > 20 |
| CC(=O)O/N=C(\N)COc1ccc(-c2nnco2)cc1 [MB10] | > 20 |
| N/C(Cc1ccc([N+](=O)[O-])cc1)=N\OC(=O)CC1CCCCC1 [CB83] | > 20 |
| CC(Oc1cccc(Cl)c1)C(=O)O/N=C(\N)Cc1ccc(Cl)cc1Cl (stereo not drawn) [CB137] | > 20 |
| Cc1nn(C/C(N)=N\OC(=O)COc2cc(Cl)ccc2Cl)c(C)c1[N+](=O)[O-] [ZE14] | > 20 |
| Cc1ccccc1OCC(=O)O/N=C(\N)Cc1ccc(Cl)cc1 [CB3] | > 20 |
| Cc1cc(OCC(=O)O/N=C(\N)Cc2cccs2)ccc1Br [CB38] | > 20 |
| Cc1cccc(NC(=O)C/C(N)=N/OC(=O)C2CCCN2C(=O)c2ccco2)c1C (stereo not drawn) [EN10] | > 20 |
| CCc1ccc(OCC(=O)O/N=C(\N)Cc2cccc3ccccc23)cc1 [CB81] | > 20 |
| Cc1ccc(OCC(=O)O/N=C(\N)Cc2cccs2)c(Br)c1 [CB23] | > 20 |
| Cc1cc(OCC(=O)O/N=C(\N)Cc2ccc([N+](=O)[O-])cc2)cc(C)c1Cl [CB50] | > 20 |
| Cc1nn(C/C(N)=N/OC(=O)C23CC4CC(CC(C4)C2)C3)c(C)c1[N+](=O)[O-] [CB147] | 4.88 (≈ 13 µM) |
| CCc1ccc(OCC(=O)O/N=C(\N)Cc2ccc([N+](=O)[O-])cc2)cc1 [CB79] | > 20 |
| Cc1cc(C)cc(C(=O)NCC(=O)O/N=C(\N)CC(=O)Nc2ccc(Cl)cc2)c1 [EN11] | > 20 |
| Cc1cc(C(F)(F)F)nn1C/C(N)=N/OC(=O)CC1CC2CCC1C2 (stereo not drawn) [ZE10] | > 20 |
| COc1ccccc1C/C(N)=N/OC(=O)COc1ccc(C)cc1 [CB29] | > 20 |
| N/C(Cc1ccc(Cl)cc1)=N\OC(=O)CCc1ccccc1 [CB55] | > 20 |

| Compound | EC50 [µg/mL] |
| --- | --- |
| COc1ccccc1C/C(N)=N/OC(=O)COc1cccc(C)c1C [CB123] | > 20 |
| Cc1cccc(OCC(=O)O/N=C(\N)Cc2ccc([N+](=O)[O-])cc2)c1 [CB39] | > 20 |
| COc1ccc(C/C(N)=N/OC(=O)Cc2ccccc2)cc1OC [CB65] | > 20 |
| Cc1cc(Br)ccc1OCC(=O)O/N=C(\N)Cc1ccc([N+](=O)[O-])cc1 [CB104] | > 20 |
| N/C(Cc1ccc([N+](=O)[O-])cc1)=N\OC(=O)CCC1CCCCC1 [CB96] | > 20 |
| COc1ccccc1CC(=O)O/N=C(\N)Cc1ccc(Cl)cc1Cl [CB97] | > 20 |
| N/C(Cc1ccc([N+](=O)[O-])cc1)=N\OC(=O)CCc1ccccc1 [VM5] | > 20 |
| Cc1ccc(CC(=O)O/N=C(\N)Cc2ccc(Cl)cc2Cl)cc1 [CB142] | > 20 |
| COc1ccc(CC(=O)C/N=C(\N)Cc2cccc3ccccc23)cc1 [CB86] | > 20 |
| COc1ccccc1C/C(N)=N/OC(=O)COc1ccc(Br)c(C)c1 [CB45] | > 20 |
| COc1ccc(C/C(N)=N/OC(=O)COc2ccc(Br)c(C)c2)cc1OC [CB36] | > 20 |
| COc1ccc(CC(=O)O/N=C(/N)Cn2nc(C)c(Br)c2C)cc1 [ZE7] | > 20 |
| Cc1ccc(OCC(=O)O/N=C(\N)Cc2cccc3ccccc23)cc1C [CB89] | > 20 |
| N/C(Cc1ccc(Cl)cc1)=N\OC(=O)C(c1ccccc1)c1ccccc1 [VM1] | 2 (≈ 5.28 µM) |
| N/C(Cc1ccc(Cl)cc1)=N\OC(=O)COc1ccc(Br)cc1 [CB42] | > 20 |
| CCC(=O)O/N=C(/N)Cn1nc(C(F)(F)F)cc1C [ZE6] | > 20 |
| Cc1ccc(OCC(=O)ON[C@H](N)Cc2cccs2)cc1C [CB94] | > 20 |
| N/C(=N\OC(=O)C1CCCN1C(=O)c1cccs1)C(c1ccccc1)c1ccccc1 (stereo not drawn) [EN6] | > 20 |
| Cc1cc(Br)ccc1OCC(=O)O/N=C(\N)Cc1ccc(Cl)cc1Cl [CB110] | > 20 |
| N/C(Cc1ccc([N+](=O)[O-])cc1)=N\OC(=O)COc1ccccc1Cl [CB67] | > 20 |
| N/C(Cc1ccc(Cl)cc1Cl)=N\OC(=O)Cc1ccc(Cl)cc1 [VM2] | > 20 |
| N/C(Cc1ccc([N+](=O)[O-])cc1)=N\OC(=O)Cc1ccc(Cl)cc1 [CB9] | > 20 |
| COc1ccccc1C/C(N)=N/OC(=O)c1ccc2c(c1)OCO2 [A05] | 5.04 (≈ 15.4 µM) |
| Cc1cccc(OCC(=O)O/N=C(\N)Cc2ccc([N+](=O)[O-])cc2)c1C [CB118] | > 20 |

| Compound | EC50 [µg/mL] |
| --- | --- |
| CC(=O)O/N=C(N)/C(=N/OC(C)=O)c1nc2ccccc2[nH]1 [CB19] | > 20 |
| CCC(Oc1ccccc1)C(=O)O/N=C(\N)Cc1ccc([N+](=O)[O-])cc1 (stereo not drawn) [CB136] | > 20 |
| CCC(=O)O/N=C(\N)COc1ccc(Cl)cc1Cl [MB12] | > 20 |
| N/C(Cc1ccc([N+](=O)[O-])cc1)=N\OC(=O)CSc1ccccc1 [CB141] | > 20 |
| CCC(=O)O/N=C(\N)Cn1nc(C)c([N+](=O)[O-])c1C [CB148] | > 20 |
| N/C(Cc1cccc2ccccc12)=N\OC(=O)COc1ccccc1 [CB27] | > 20 |
| N/C(Cc1ccc(Cl)c(Cl)c1)=N\OC(=O)COc1ccccc1 [CB48] | > 20 |
| N/C(Cc1cccs1)=N\OC(=O)COc1ccc(Cl)cc1Cl [CB75] | > 20 |
| CCC(Oc1ccccc1)C(=O)O/N=C(\N)Cc1ccc(Cl)cc1Cl (stereo not drawn) [CB140] | 8.56 (≈ 22.5 µM) |
| CCc1ccc(OCC(=O)O/N=C(\N)Cc2ccc([N+](=O)[O-])cc2)c(Br)c1 [CB129] | > 20 |
| N/C(Cc1ccc(-c2csnn2)cc1)=N\OC(=O)C1CC1 [MB7] | > 20 |
| N/C(Cc1ccc(Cl)cc1Cl)=N\OC(=O)COc1ccccc1 [CB32] | > 20 |
| CC(Oc1cccc(Cl)c1)C(=O)O/N=C(\N)Cc1cccc2ccccc12 (stereo not drawn) [CB134] | > 20 |
| CC(=O)O/N=C(/N)Cn1nc(C)c([N+](=O)[O-])c1C [CB146] | > 20 |
| CC(C)c1ccc(OCC(=O)O/N=C(\N)Cc2ccc([N+](=O)[O-])cc2)c(Br)c1 [CB130] | > 20 |
| N/C(Cc1ccc(Cl)cc1Cl)=N\OC(=O)/C=C/c1ccccc1Cl [VM3] | 8.51 (≈ 22.2 µM) |
| N/C(Cc1ccc([N+](=O)[O-])cc1)=N\OC(=O)CC(c1ccccc1)c1ccccc1 [CB115] | 2.42 (≈ 6 µM) |
| COc1ccc(/C=C(\C#N)C(=O)O/N=C2\CCCCCN2)cc1 [EN1] | > 20 |
| CC(C)(C)C(=O)O/N=C(\N)CS(=O)(=O)c1ccc(Cl)cc1 [MB15] | > 20 |
| CC(C)(Oc1ccc(Cl)cc1)C(=O)O/N=C(\N)Cc1cccc2ccccc12 [CB113] | > 20 |
| CC(=O)NC(=N/OC(C)=O)/C(=N/OC(C)=O)c1nc2ccccc2[nH]1 [CB20] | > 20 |
| N/C(Cc1ccc([N+](=O)[O-])cc1)=N\OC(=O)COc1ccc(Br)cc1 [CB43] | > 20 |

Same assay, conditions: tested once in technical triplicates

| Compound | EC50 of CIL41/70 and structural analogs (lethality) |
| --- | --- |
| CC(=NOCC(=O)ON=C(N)COc1cccc(Cl)c1)c1ccc(Cl)cc1 [MB3] | MB3 (>20 ug/mL) |
| COc1ccc(OCC(N)=NOC(=O)CON=C(C)c2ccc(Cl)cc2)cc1 [MB2] | MB2 (>20 ug/mL) |

From patent US10947188B2, “Small molecule ferroptosis inducers” (THE TRUSTEES OF COLUMBIA UNIVERSITY IN THE CITY OF NEW YORK, priority 2016, dated 2021)
